Assays:
Assay in all cases: relative viability (nuclei count vs DMSO), 5 days (fraction); higher = more cells survive
SGI-1776 + Trametinib = compound: CN1CCC(CNc2ccc3ncc(-c4cccc(OC(F)(F)F)c4)n3n2)CC1 [SGI-1776] + CC(=O)Nc1cccc(-n2c(=O)n(C3CC3)c(=O)c3c(Nc4ccc(I)cc4F)n(C)c(=O)c(C)c32)c1 [Trametinib] (partner 0.02 µM)
Procedure, shortened: (§1)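 Nuclei were stained with Hoechst during a one-step fixation (final 0.05% Triton X-100, 1% formaldehyde, 1 ug/ml Hoechst) carried out 5 days after dosing, then counted on 4× images. The cells, lung cancer lines in 1536-well plates, had been dosed by pin tool the day after seeding with one drug alone or a fixed anchor-drug dose plus five library-drug doses (not always all listed) in √10 steps. Relative viability is the nuclei count in treated wells divided by that in vehicle wells, and each value is the median of duplicate plates.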

Entinostat + AZD7762 = compound: Nc1ccccc1NC(=O)c1ccc(CNC(=O)OCc2cccnc2)cc1 [Entinostat] + NC(=O)Nc1cc(-c2cccc(F)c2)sc1C(=O)N[C@H]1CCCNC1 [AZD7762] (partner 0.2 µM)
Procedure, shortened: as §1

[1] = compound: C1COCCN1C2=NC(=NC3=C2OC4=C3C=CC=N4)C5=CC(=CC=C5)NC(=O)C6=CN=C(C=C6)N + CC(=O)Nc1cccc(-n2c(=O)n(C3CC3)c(=O)c3c(Nc4ccc(I)cc4F)n(C)c(=O)c(C)c32)c1 [Trametinib] (partner 0.02 µM)
Procedure, shortened: as §1

Entinostat + Olaparib = compound: Nc1ccccc1NC(=O)c1ccc(CNC(=O)OCc2cccnc2)cc1 [Entinostat] + O=C(c1cc(Cc2n[nH]c(=O)c3ccccc23)ccc1F)N1CCN(C(=O)C2CC2)CC1 [Olaparib] (partner 8 µM)
Procedure, shortened: as §1

Cell Line	relative viability (SGI-1776 + Trametinib; first compound 0.08 µM)	relative viability (SGI-1776 + Trametinib; first compound 0.8 µM)	relative viability (SGI-1776 + Trametinib; first compound 2.53 µM)	relative viability (SGI-1776 + Trametinib; first compound 8 µM)	relative viability (Entinostat + AZD7762; first compound 0.02 µM)	relative viability (Entinostat + AZD7762; first compound 0.06325 µM)	relative viability (Entinostat + AZD7762; first compound 0.2 µM)	relative viability (Entinostat + AZD7762; first compound 0.6325 µM)	relative viability (Entinostat + AZD7762; first compound 2 µM)	relative viability ([1]; first compound 0.02 µM)	relative viability ([1]; first compound 0.06325 µM)	relative viability ([1]; first compound 0.2 µM)	relative viability ([1]; first compound 0.6325 µM)	relative viability ([1]; first compound 2 µM)	relative viability (Entinostat + Olaparib; first compound 0.02 µM)	relative viability (Entinostat + Olaparib; first compound 0.06325 µM)	relative viability (Entinostat + Olaparib; first compound 0.2 µM)	relative viability (Entinostat + Olaparib; first compound 0.6325 µM)	relative viability (Entinostat + Olaparib; first compound 2 µM)
201T	0.702	0.77	0.711	0.702	0.694	0.711	0.601	0.402	0.328	0.697	0.713	0.705	0.686	0.563	0.838	0.775	0.694	0.489	0.459
A549	–	–	–	–	–	–	–	–	–	–	–	–	–	–	0.332	0.375	0.334	0.258	0.232
A-427	0.749	0.726	0.722	0.542	0.703	0.775	0.731	0.584	0.428	0.718	0.732	0.682	0.684	0.563	0.721	0.717	0.678	0.554	0.553
ABC-1	–	–	–	–	0.803	0.727	0.951	0.86	0.59	–	–	–	–	–	0.508	1.11	0.758	0.993	1.07
BEN	1.03	1.24	0.991	0.791	0.771	0.714	0.685	0.602	0.464	1	0.947	1.11	0.888	0.939	1.22	1.15	1.09	0.64	0.371
CAL-12T	0.433	0.399	0.33	0.288	0.775	0.578	0.67	0.642	0.464	0.28	0.324	0.272	0.354	0.303	0.728	0.781	0.854	0.767	0.572
COR-L23	0.694	0.619	0.613	0.408	–	–	–	–	–	0.609	0.669	0.663	0.593	0.469	0.323	0.311	0.347	0.184	0.127
COR-L 105	0.504	0.388	0.452	0.41	–	–	–	–	–	0.421	0.411	0.415	0.403	0.465	0.683	0.825	0.773	0.483	0.407
Calu-6	–	–	–	–	–	–	–	–	–	–	–	–	–	–	0.603	0.539	0.637	0.381	0.323
ChaGo-K-1	0.878	0.865	0.874	0.909	0.872	0.861	0.962	0.897	0.692	0.906	0.987	0.941	0.804	0.602	0.426	0.425	0.497	0.358	0.331
EBC-1	–	–	–	–	–	–	–	–	–	–	–	–	–	–	0.68	0.732	0.696	0.203	0.174
EKVX	0.386	0.342	0.344	0.31	0.763	0.645	0.645	0.416	0.265	0.322	0.334	0.298	0.248	0.244	0.766	0.829	0.825	0.73	0.386
EMC-BAC-2	0.992	0.966	0.853	0.879	1.17	0.987	0.881	0.441	0.457	0.838	0.924	0.853	0.789	0.725	0.48	0.444	0.388	0.3	0.23
EPLC-272H	0.288	0.282	0.307	0.282	0.339	0.224	0.141	0.137	0.14	0.278	–	0.235	0.297	0.281	0.726	0.614	0.875	0.273	0.191
H3255	0.633	0.582	0.577	0.559	1	0.901	0.756	0.539	0.333	0.703	0.588	0.604	0.663	0.421	0.606	0.51	0.454	0.364	0.308
HARA	0.652	0.74	0.604	0.732	0.37	0.229	0.34	0.215	0.244	0.728	0.738	0.848	0.433	0.601	0.761	0.944	0.675	0.876	0.314
HCC-15	0.262	0.376	0.332	0.338	1.19	1.2	1.26	0.774	0.457	0.413	0.423	0.343	0.325	0.278	0.684	0.617	0.56	0.377	0.201
HCC-44	1.04	1.05	0.988	1.09	1.02	0.876	1.02	0.995	0.774	1.12	1.31	1.04	1.09	1	0.957	0.906	0.93	0.875	0.7
HCC-78	0.772	0.804	0.693	0.72	0.609	0.687	0.466	0.327	0.254	0.926	0.836	0.899	0.756	0.566	0.771	0.722	0.577	0.386	0.355
HCC-366	0.344	0.368	0.289	0.19	0.262	0.29	0.272	0.107	0.121	0.4	0.341	0.394	0.231	0.138	0.343	0.311	0.212	0.132	0.0516

— the supplement of paper PMC10307832
